# Reference: patent EP4324461A1, “(E)-N-CINAMOYLAMINOALKANOLES WITH MELANOGENESIS INHIBITORY ACTIVITY” (UNIWERSYTET JAGIELLONSKI, priority 2022, dated 2024)
# Read-outs that look alike come from different tables or passages of the source.
# What was measured:
# [1] = tested on: Balb/c 3T3 murine fibroblast cell line; test: Phototoxicity in Balb/c 3T3 fibroblasts (neutral red uptake)
# Procedure: Balb/c 3T3 cells, which are an immortalized murine fibroblast cell line, were purchased at ATTC and cultured in the medium recommended by the manufacturer (DMEM GlutaMAX, newborn calf serum (BCS), antibiotics). After multiplication, cells were placed in 96-well plates, which were incubated for 24 hours, after which all wells of the plates were washed with 150 µL of balanced salt solution (HBSS). Then, after drying the plates, 100 µL of a solution of the tested compounds in HBSS with 2% FBS was added to each well and incubated for an hour. After this time, some of the plates were irradiated using the Suntest CPS+ sunlight simulator from Atlas with appropriate filters cutting off radiation with a wavelength <320 nm (UVA radiation intensity 5 J/cm^2). The second part of the plates was placed in radiation-free conditions for the same period of time. After the exposure time, the liquid was removed from all plates and the wells were washed twice with 150 µL of HBSS, then supplemented with fresh culture medium and incubated for 24 hours in an incubator (37 °C, 5% CO2). Viability was assessed in the neutral red uptake test, which is based on the ability of the dye to penetrate only into living cells. Dye uptake was confirmed by absorbance measurement at 540 nm. […] The appropriate coefficients were also calculated: mean phototoxic effect (MPE) and photoirritation factor (PIF). PIF is the ratio of the IC50 values of unirradiated to irradiated cells, while MPE is based on the comparison of concentration-response curves. […]
# [2] = tested on: reconstituted human epidermis EpiDerm; conditions: 21 h, 0.01 %
# Procedure: An epidermis with an area of 0.6 cm^2 was used. After receiving the tissue, the inserts were transferred to fresh medium and incubated in an incubator (5% CO2, 37 °C). All work during epidermis culture and application of the tested compounds and formulations was carried out in a laminar air flow chamber, using aseptic principles and sterile reagents and utensils. […] The applied solutions and formulation were spread on the surface of the inserts using a sterile glass bulb headed Pasteur pipette. The plates were incubated in the incubator for 21 hours, after which the inserts were transferred to new 6-well plates with 0.9 mL DBPS. 1 plate was exposed to UVA radiation at a dose of 6 J/cm^2 using a solar light simulator (Solar Simulator, Atlas) as its source (+UVA plate). The second plate was placed in a dark place outside the incubator for the same period of time (-UVA plate). After exposure, inserts from both plates were rinsed with DPBS, dried with a sterile cotton bud and placed in new plates containing 0.9 mL of fresh growth medium and incubated for 21 hours. After this time, the MTT test was performed by placing the inserts in 0.3 mL of MTT solution in DMEM medium (concentration 1 mg/mL) for 3 hours. After this time, the formed formazan was extracted into isopropanol and the absorbance of all samples was read at 270 nm. […]
# tyrosinase [3] = conditions: reference [11], cited from earlier work
# [4] = Lipophilicity coefficient RM0 by reversed phase thin layer chromatography; assay type: physicochemical; conditions: RP-18 TLC, methanol / 100 mM phosphate buffer pH = 7.4
# Summary of the method: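 Reversed-phase TLC on RP-18 F254 silica, with methanol/100 mM phosphate buffer pH 7.4 mobile phases of 95–65% (v/v) methanol, at room temperature, in duplicate. Spots were visualized under UV at 254 nm. RM = log(1/Rf − 1) was plotted linearly against methanol content to derive RM0.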
# tyrosinase from mushroom = test: Inhibition of commercial mushroom tyrosinase (L-DOPA or L-tyrosine substrate); assay type: biochemical
# Summary of the method: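 Tyrosinase (1U/well or 3U/well) in 50 mM phosphate buffer pH 6.8 with compound at final 500, 250 or 125 µM; L-DOPA (diphenolase) or L-tyrosine (monophenolase) added in separate runs. Absorbance at 475 nm after 25 min; % inhibition versus DMSO control.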
# [5] = tested on: B16-F10 murine melanoma cell line; test: Cytotoxicity in B16-F10 cells (MTT); assay type: cell-based; conditions: 48 h
# Summary of the method: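 Cells in F10-Ham with 1% FBS exposed to various compound concentrations for 48 h after 24 h pre-culture. MTT read-out: formazan dissolved in DMSO, absorbance at 570 nm. Viability expressed as percent of DMSO control (AT/AC×100).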
# S. typhimurium TA98 = test: Ames microplate test, TA98; assay type: cell-based, Salmonella typhimurium;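 further: reference level is the mean solvent-control yellow wells plus SD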
# Procedure: (§1) Bacteria were grown overnight in growth medium.
# (§2) Table 9. Ames microplate test results.
# S. typhimurium TA100 = test: Ames microplate test, TA100; assay type: cell-based, Salmonella typhimurium;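 further: reference level is the mean solvent-control yellow wells plus SD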
# Procedure: as §1, §2
# S. typhimurium TA1537 = test: Ames microplate test, TA1537; assay type: cell-based, Salmonella typhimurium;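 further: reference level is the mean solvent-control yellow wells plus SD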
# Procedure: as §1, §2
# [6] = tested on: Chinese hamster ovary cell line (CHO-K1); test: Cytotoxicity in CHO-K1 cells (MTT) before the micronucleus test; assay type: cell-based; conditions: 24 hours
# Procedure: The assay was performed using a Chinese hamster ovary cell line (CHO-K1) purchased from the American Type Culture Collection (ATCC). The cells were cultured in F-12K medium with the addition of 10% fetal bovine serum (FBS) and antibiotics (streptomycin/penicillin) in an incubator at 37 °C and 5% CO2 concentration). Before the actual micronucleus test, a cytotoxicity assessment was performed to ensure that the actual test was performed only at safe concentrations. For this purpose, cells were transferred to 96-well plates and incubated with the tested compounds for 24 hours. After this time, the MTT test was performed and cell viability was assessed in comparison to the control group (cells cultured with DMSO at the same concentration as in the case of the tested samples).
# [7] = tested on: Chinese hamster ovary cell line (CHO-K1); test: Genotoxicity in the micronucleus test in CHO-K1 cells; assay type: cell-based
# S. typhimurium TA1535 = test: Ames microplate test, TA1535;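 further: bacteria exposed to compound 90 min at 37 °C, then kept 48 h at 37 °C with indicator medium in 384-well plates, scoring wells that turned yellow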
# Procedure: The study used the Ames microplate test (Ames MPF™ Penta 2 by Xenometrix, Allschwil, Switzerland). Growth medium, exposure medium, indicator medium, positive controls, hepatic microsomal fraction, NADP, glucose-6-phosphate, Salmonella typhimurium and Escherichia coli strains were components of the purchased experimental kit. Bacteria were grown overnight in growth medium. They were then exposed to the test compound at the appropriate concentration in exposure medium without or with the rat microsomal fraction S9 in 24-well plates for 90 min at 37 °C with shaking. Then, indicator medium was added to the wells and pipetted into 384-well plates, which were incubated for 48 hours at 37 °C without shaking. Results were assessed by counting the wells in which the medium turned yellow for each experimental condition.
# E. coli WP2 = test: Ames microplate test, E. coli WP2;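 further: bacteria treated 90 min at 37 °C in 24-well plates, then indicator medium dispensed to 384-well plates and incubated 48 h before yellow-well counting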
# tyrosinase [8] = conditions: cited from earlier work; for mechanism of tyrosinase inhibition: references [6], [7]
# [9] = tested on: human reconstructed epidermis Episkin™; test: Skin irritation test in reconstructed human epidermis (Episkin); conditions: 5% aqueous, 15 min exposure, 42 h incubation
# Procedure: The study used human reconstructed epidermis Episkin™ with an area of 1.07 cm^2. Immediately after receipt, the tissue was transferred to fresh medium and cultured in an incubator (37 °C, 5% CO2) for 18 hours. Before performing experiments, the inserts were washed with sterile PBS and placed in the wells of a 12-well plate containing 2 mL of fresh culture medium. […] After 15 min of exposure, samples were washed with PBS (5x5 mL). The inserts were transferred to plates with fresh culture medium and incubated for 42 hours (37 °C, 5% CO2). After this time, the entire medium was collected to assess the amount of released interleukin 1α (the medium was stored at -20 °C until the experiment was performed), and the inserts were transferred to the MTT solution. […] Measurement of the absorbance of the samples obtained in this way at 570 nm enabled the assessment of tissue viability according to the formula: % Viability = [OD (570 nm) for the tested compound/OD (570 nm) for the control] × 100.
# [10] = 7-day application of a cream to the skin before exposure to UV radiation; compared to untreated skin; reference [8]; cited from earlier work
# [11] = reference [7], read-out: IC50, tyrosinase inhibition
# [12] = reference [6], read-out: IC50, tyrosinase diphenolase activity
smiles,measurement,setting,value
"CN(C)CCCN1c2ccccc2Sc2ccc(Cl)cc21 [Chlorpromazine, reference compound]",phototoxic potential,[1],clearly indicate its phototoxic potential
same,IC50,"[1]; Mus musculus, BALB/c3T3",18.6 µg/mL
same,MPE,"[1]; mouse, 1 h",0.499
same,PIF,"[1]; mouse, 1 h",25.618
same,Viability [% relative to water] ± SD,[2],99.52±9.41 % relative to water
CCOC(=O)[C@H](Cc1ccccc1)NC(=O)C=Cc1ccc(O)c(OC)c1 (stereo in doubt) [N-[3-(4-hydroxy-3-methoxyphenyl)-1-oxo-2-propen-1-yl]-L-phenylalanine ethyl ester],type of inhibition,tyrosinase [3],mixed type of inhibition
same,IC50,"tyrosinase [3]; read-out: IC50, tyrosinase inhibition",0.185 ± 0.005 µM
"CCC(O)CNC(=O)/C=C/c1ccc(Cl)cc1 (stereo not shown) [Compound A-67, (2E)-3-(4-chlorophenyl)-N-(2-hydroxybutyl)prop-2-enamide]",RM0,[4],2.46
same,Tyrosinase inhibition with L-DOPA [%],tyrosinase from mushroom; L-DOPA,60.76±1.99% (500 µM)
same,IC50,"tyrosinase from mushroom; L-DOPA, read-out: Tyrosinase inhibition with L-DOPA, IC50",232 µM
same,Tyrosinase inhibition with L-tyrosine [%],tyrosinase from mushroom; L-tyrosine,79.20±1.20% (500 µM)
same,IC50,"tyrosinase from mushroom; L-tyrosine, read-out: Tyrosinase inhibition with L-tyrosine, IC50",165 µM
same,Cytotoxicity study in B16F10 cells % viability,[5]; 150 µM,73.6%
same,Cytotoxicity study in B16F10 cells % viability,[5]; 200 µM,87.8%
same,Cytotoxicity study in B16F10 cells % viability,[5]; 250 µM,84.4%
same,Increase in the number of yellow wells compared to the reference level,"S. typhimurium TA98; 0.5 mM, +S9",0.31
same,Increase in the number of yellow wells compared to the reference level,"S. typhimurium TA98; 0.5 mM, without S9",0.27
same,Increase in the number of yellow wells compared to the reference level,"S. typhimurium TA98; 1.0 mM, +S9",0.94
same,Increase in the number of yellow wells compared to the reference level,"S. typhimurium TA98; 1.0 mM, without S9",1.07
same,Increase in the number of yellow wells compared to the reference level,"S. typhimurium TA98; 2.0 mM, +S9",1.04
same,Increase in the number of yellow wells compared to the reference level,"S. typhimurium TA98; 2.0 mM, without S9",1.07
same,Increase in the number of yellow wells compared to the reference level,"S. typhimurium TA100; 0.5 mM, +S9",0.78
same,Increase in the number of yellow wells compared to the reference level,"S. typhimurium TA100; 0.5 mM, without S9",1.53
same,Increase in the number of yellow wells compared to the reference level,"S. typhimurium TA100; 1.0 mM, +S9",0.64
same,Increase in the number of yellow wells compared to the reference level,"S. typhimurium TA100; 1.0 mM, without S9",0.93
same,Increase in the number of yellow wells compared to the reference level,"S. typhimurium TA100; 2.0 mM, +S9",0.31
same,Increase in the number of yellow wells compared to the reference level,"S. typhimurium TA100; 2.0 mM, without S9",0.80
same,Increase in the number of yellow wells compared to the reference level,"S. typhimurium TA1537; 0.5 mM, +S9",1.00
same,Increase in the number of yellow wells compared to the reference level,"S. typhimurium TA1537; 0.5 mM, without S9",0.00
same,Increase in the number of yellow wells compared to the reference level,"S. typhimurium TA1537; 1.0 mM, +S9",1.33
same,Increase in the number of yellow wells compared to the reference level,"S. typhimurium TA1537; 1.0 mM, without S9",0.18
same,Increase in the number of yellow wells compared to the reference level,"S. typhimurium TA1537; 2.0 mM, +S9",0.00
same,Increase in the number of yellow wells compared to the reference level,"S. typhimurium TA1537; 2.0 mM, without S9",0.82
same,% Viability [mean],[6]; 100 µM,96.0%
same,% Viability [mean],[6]; 150 µM,90.3%
same,% Viability [mean],[6]; 200 µM,84.0%
same,DB (dicentric bridges in 1000 binucleate cells),[7]; 100 µM,3.3 ± 0.6
same,MN (number of micronuclei in 1000 binucleate cells),[7]; 100 µM,12.0 ± 5.7
same,NB (nuclear buds in 1000 binucleate cells),[7]; 100 µM,5.0 ± 2.8
same,NDI (nuclear division index),[7]; 100 µM,1.58
same,DB (dicentric bridges in 1000 binucleate cells),[7]; 150 µM,2.3 ± 0.6
same,MN (number of micronuclei in 1000 binucleate cells),[7]; 150 µM,8.0 ± 2.8
same,NB (nuclear buds in 1000 binucleate cells),[7]; 150 µM,5.5 ± 2.1
same,NDI (nuclear division index),[7]; 150 µM,1.62
same,DB (dicentric bridges in 1000 binucleate cells),[7]; 200 µM,3.0 ± 2.8
same,MN (number of micronuclei in 1000 binucleate cells),[7]; 200 µM,6.5 ± 2.1
same,NB (nuclear buds in 1000 binucleate cells),[7]; 200 µM,5.5 ± 0.7
same,NDI (nuclear division index),[7]; 200 µM,1.62
same,Increase in the number of yellow wells compared to the reference level,"S. typhimurium TA1535; 0.5 mM, +S9",0.27
same,Increase in the number of yellow wells compared to the reference level,"S. typhimurium TA1535; 0.5 mM, without S9",0.30
same,Increase in the number of yellow wells compared to the reference level,"S. typhimurium TA1535; 1.0 mM, +S9",0.54
same,Increase in the number of yellow wells compared to the reference level,"S. typhimurium TA1535; 1.0 mM, without S9",0.45
same,Increase in the number of yellow wells compared to the reference level,"S. typhimurium TA1535; 2.0 mM, +S9",0.13
same,Increase in the number of yellow wells compared to the reference level,"S. typhimurium TA1535; 2.0 mM, without S9",1.04
same,Increase in the number of yellow wells compared to the reference level,"E. coli WP2; 0.5 mM, +S9",0.83
same,Increase in the number of yellow wells compared to the reference level,"E. coli WP2; 0.5 mM, without S9",0.50
same,Increase in the number of yellow wells compared to the reference level,"E. coli WP2; 1.0 mM, +S9",0.42
same,Increase in the number of yellow wells compared to the reference level,"E. coli WP2; 1.0 mM, without S9",1.00
same,Increase in the number of yellow wells compared to the reference level,"E. coli WP2; 2.0 mM, +S9",1.42
same,Increase in the number of yellow wells compared to the reference level,"E. coli WP2; 2.0 mM, without S9",0.83
O=C(O)C=Cc1ccccc1 [Cinnamic acid],mechanism of tyrosinase inhibition,tyrosinase [8],non-competitive inhibitor
"O=C(O)C=Cc1ccc(Cl)cc1Cl [2,4-dichlorocinnamic acid]",IC50,tyrosinase [8]; [11],295 µM
same,mechanism of tyrosinase inhibition,tyrosinase [8],reversible non-competitive mechanism
COc1ccc(C=CC(=O)O)cc1 [4-methoxycinnamic acid],IC50,tyrosinase [8]; [12],420 µM
"CCCCCCCCCCCCOS(=O)(=O)[O-].[Na+] [SDS, sodium lauryl sulfate]",tissue viability,[9]; compared to the negative control (PBS and PEG400),23.8%
same,IL-1α concentration in the culture medium,[9]; positive control,> 250 pg/mL
O=C(O)C=Cc1ccc(O)cc1 [4-Hydroxycinnamic acid],IC50,tyrosinase [8]; [12],500 µM
same,inhibition of erythema formation,[10],77%
O=C(O)C=Cc1ccccc1Cl [2-Chlorocinnamic acid],IC50,tyrosinase [8]; [11],765 µM
same,mechanism of tyrosinase inhibition,tyrosinase [8],reversible non-competitive mechanism
